{
  "source": "patent US10370364B1",
  "about": "“Substituted chromenes for treatment of fibrosis or non-alcoholic steatohepatitis” (OSTEONEUROGEN INC., priority 2018, dated 2019)",
  "key": {"[1]": {"tested_on": "α-SMA (alpha-smooth muscle actin)", "assay": "α-SMA expression in ONGHEPA1 cells by immunofluorescent staining", "type": "cell-based, rat", "details": "TGF-β plus compound 50 μM", "source_text": "In addition, in order to examine whether the above-described effect would be attributable to the effect against epithelial-mesenchymal transition (EMT) (hereinafter referred to as “EMT”), the expression of α-SMA (alpha-smooth muscle actin), which is a representative marker of EMT, in the cells of each test group, was examined by immunofluorescent staining and nuclear staining (DAPI staining)."}, "[2]": {"tested_on": "Diseased human lung fibroblasts (DHLF)", "assay": "TGF-β-induced fibrosis of diseased human lung fibroblasts (DHLF)", "type": "cell-based", "details": "TGF-β 5 ng/ml, compound 50 μM, 24, 48 or 72 hours", "procedure": "Diseased human lung fibroblasts (DHLF) (Lonza, Swiss) isolated from lung fibrosis patients were seeded into medium, cultured for 24 hours, and then treated with TGF-β (5 ng/ml) to induce fibrosis. Alternatively, the fibroblasts were co-treated with TGF-β and the compound of the present invention (50 μM in DMSO) and cultured for 24, 48 or 72 hours. Next, the degree of differentiation into myofibroblasts was examined with a phase contrast microscope (200×)."}, "Vimentin": {"tested_on": "Vimentin", "assay": "Vimentin expression in A549 cells by real-time PCR", "type": "cell-based, human", "details": "A549, TGF-β plus compound", "procedure": "In addition, in order to examine whether the effect as described above would be attributable to the effect against EMT, the expression patterns of Snail and Vimentin, which are representative markers of EMT, in the cells of each test group, were analyzed by real-time PCR."}, "[3]": {"assay": "Metabolic stability in rat liver microsomes with NADPH", "type": "in vitro ADME", "details": "rat, rat liver microsomes", "procedure": "(§1) The compound of the present invention was incubated with rat liver microsomes and NADPH, and then the rate of elimination of the compound was measured, thereby determining the intrinsic clearance value (CLint value) of the compound."}, "Rat liver microsomes": {"tested_on": "Rat liver microsomes", "assay": "Metabolic stability in rat liver microsomes with NADPH", "type": "in vitro ADME", "details": "Rat liver microsomes", "procedure": "as §1"}, "STAM mice": {"tested_on": "STAM mice", "assay": "Non-alcoholic steatohepatitis animal model (STAM mice), NAFLD activity score", "type": "in vivo", "details": "50 mpk oral, Formulation Example 2, once a day five times a week", "procedure": "STAM mice (SMC Laboratories, Inc., Japan), which are non-alcoholic steatohepatitis animal models, were used as experimental animals. These animal models were administered with streptozotocin immediately after birth, and fed with high-fat-diet after 3 weeks. Then, in the mouse model, non-alcoholic steatohepatitis occurred at 6 to 9 weeks, and liver fibrosis, cirrhosis and liver cancer occurred within 9 to 12 weeks.\nOver 6 to 9 weeks after administration of streptozotocin, the compound of the present invention, dissolved in a mixture solution of Tween80 and 0.5% CMC aqueous solution (1:99 (v/v)) (Formulation Example 2), was orally administered to the animal models once a day (five times a week). As controls, telmisartan and OCA (obeticholic acid) were administered in the same manner.\nAt […] after administration of streptozotocin (a time point after 3-week administration of the compound), the mice were sacrificed, the liver of each mouse was dissected, the invasion of inflammatory cells was observed by […] of the liver tissue, and fibrosis of the liver tissue was observed by Sirius Red staining (see FIG. 42). In addition, the degrees of inflammation, fibrosis, liver cell ballooning and adipose accumulation observed were measured, data integration was performed, and the NAFLD (nonalcoholic fatty liver disease) activity score was statistically processed by t-test."}, "CYP3A4": {"biological_target": "CYP3A4 (Homo sapiens, UniProt P08684)", "sequence (P08684 whole entry)": "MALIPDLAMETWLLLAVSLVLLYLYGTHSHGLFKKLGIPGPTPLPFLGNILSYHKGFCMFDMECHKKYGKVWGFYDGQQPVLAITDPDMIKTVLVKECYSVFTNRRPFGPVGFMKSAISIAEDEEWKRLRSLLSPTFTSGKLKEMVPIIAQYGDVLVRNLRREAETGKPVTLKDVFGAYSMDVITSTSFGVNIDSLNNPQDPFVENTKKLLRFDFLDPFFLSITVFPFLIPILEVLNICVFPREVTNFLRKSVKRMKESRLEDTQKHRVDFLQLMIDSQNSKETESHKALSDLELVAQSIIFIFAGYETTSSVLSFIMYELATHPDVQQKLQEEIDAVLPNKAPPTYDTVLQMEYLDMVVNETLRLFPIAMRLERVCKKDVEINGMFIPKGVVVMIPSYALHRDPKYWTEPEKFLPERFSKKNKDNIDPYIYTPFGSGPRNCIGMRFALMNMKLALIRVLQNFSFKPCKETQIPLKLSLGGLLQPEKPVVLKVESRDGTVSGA", "assay": "CYP450 inhibition, CYP3A4"}, "CYP2D6": {"biological_target": "CYP2D6 (Homo sapiens, UniProt P10635)", "sequence (P10635 whole entry)": "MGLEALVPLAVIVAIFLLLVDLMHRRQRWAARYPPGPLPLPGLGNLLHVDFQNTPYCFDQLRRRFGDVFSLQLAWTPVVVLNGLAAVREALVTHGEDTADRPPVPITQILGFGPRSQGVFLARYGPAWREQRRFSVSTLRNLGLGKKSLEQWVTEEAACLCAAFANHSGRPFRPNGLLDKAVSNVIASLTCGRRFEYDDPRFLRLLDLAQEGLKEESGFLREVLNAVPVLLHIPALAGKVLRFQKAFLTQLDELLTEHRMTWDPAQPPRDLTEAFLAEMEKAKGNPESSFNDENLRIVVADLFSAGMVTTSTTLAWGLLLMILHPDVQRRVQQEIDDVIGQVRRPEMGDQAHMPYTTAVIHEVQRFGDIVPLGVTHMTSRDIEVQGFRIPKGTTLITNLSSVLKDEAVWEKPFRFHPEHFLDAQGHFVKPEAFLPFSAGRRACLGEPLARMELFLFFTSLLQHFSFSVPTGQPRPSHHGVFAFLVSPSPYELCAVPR", "assay": "CYP450 inhibition, CYP2D6"}},
  "data": [
    {"smiles": "COc1ccc(-c2cc(=O)c3c(O)c(OC)c(OCCN4CCNC(=O)C4)cc3o2)cc1OC", "note": "[Compound 1, 4-(2-((2-(3,4-dimethoxyphenyl)-5-hydroxy-6-methoxy-4-oxo-4H-chromen-7-yl)oxy)ethyl)piperazin-2-one]", "values": [
      {"measurement": "expression of α-SMA", "setting": "[1]", "value": "inhibited"},
      {"measurement": "degree of differentiation into myofibroblasts (fibrosis symptom)", "setting": "[2]", "value": "showed little or no fibrosis symptom"},
      {"measurement": "growth of the cells", "setting": "[2]", "value": "inhibited"},
      {"measurement": "expression of Vimentin", "setting": "Vimentin", "value": "significantly inhibited"},
      {"measurement": "microsomal CLint", "setting": "[3]; read-out: CL int", "value": 19.4, "unit": "µL/min/mg"},
      {"measurement": "half-life", "setting": "[3]; read-out: t½", "value": 1.19, "unit": "h"},
      {"measurement": "Clearance value", "setting": "Rat liver microsomes", "value": "Moderate"},
      {"measurement": "metabolic stability (in words)", "setting": "Rat liver microsomes; NADPH", "value": "metabolically stable such that it could be comparable with atenolol"},
      {"measurement": "NAFLD activity score (t-test)", "setting": "STAM mice", "value": "statistically significant anti-NASH effects"},
      {"measurement": "IC50", "setting": "CYP3A4; 3A4-midazolam IC50, substrate midazolam", "value": "> 50", "unit": "µM"},
      {"measurement": "IC50", "setting": "CYP3A4; 3A4-testosterone IC50, substrate testosterone", "value": 49.7, "unit": "µM"},
      {"measurement": "IC50", "setting": "CYP2D6", "value": "> 50", "unit": "µM"}
    ]}
  ]
}
